In patent US8513232B2, “Substituted spirocyclic piperidine derivatives as histamine-3 (H3) receptor ligands” (Cephalon, Inc., priority 2008, dated 2013) one finds Ki and melting point data, which are given here for 32 compounds.

For data set [1], the target named is T1, human H3 receptor (Homo sapiens, UniProt Q9Y5N1).
T1 construct: expressed in transfected cells
Put plainly: Human H3 radioligand binding ([3H]-N-alpha-methylhistamine, SPA). The note with it: human H3 binding, Table D; read-out: Human H3 Ki. A digest of the protocol: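 SPA competition binding on membranes from CHO cells stably expressing human H3 receptor (10 μg protein/well) with ~1 nM [3H]-N-alpha-methylhistamine and compound at 0.01 nM-30 μM. Incubation 4 h at room temperature in 50 mM Tris-HCl pH 7.4, 5 mM MgCl2, 0.1% BSA; non-specific binding defined with 10 μM clobenpropit.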

For data set [2], the target named is T2, rat histamine H3 receptor (Rattus norvegicus, UniProt Q9QYN8).
T2 construct: encoding the entire 445-amino-acid rat histamine H3 receptor; expressed in transfected cells; membrane preparation
Put plainly: Rat H3 radioligand binding ([3H]-N-alpha-methylhistamine, SPA). The settings on record: rat H3 binding, Table D; read-out: Rat H3 Ki. In a few lines:
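Membranes from CHO-A3 cells stably expressing full-length rat H3 receptor (10 μg protein/well) incubated 4 h at room temperature, protected from light, with ~1 nM [3H]-N-alpha-methylhistamine and compound (0.01 nM-30 μM) in 50 mM Tris HCl pH 7.4, 5 mM MgCl2, 0.1% BSA. Binding read by SPA; 10 μM clobenpropit defined non-specific binding.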

T2 sequence (Q9QYN8 whole entry): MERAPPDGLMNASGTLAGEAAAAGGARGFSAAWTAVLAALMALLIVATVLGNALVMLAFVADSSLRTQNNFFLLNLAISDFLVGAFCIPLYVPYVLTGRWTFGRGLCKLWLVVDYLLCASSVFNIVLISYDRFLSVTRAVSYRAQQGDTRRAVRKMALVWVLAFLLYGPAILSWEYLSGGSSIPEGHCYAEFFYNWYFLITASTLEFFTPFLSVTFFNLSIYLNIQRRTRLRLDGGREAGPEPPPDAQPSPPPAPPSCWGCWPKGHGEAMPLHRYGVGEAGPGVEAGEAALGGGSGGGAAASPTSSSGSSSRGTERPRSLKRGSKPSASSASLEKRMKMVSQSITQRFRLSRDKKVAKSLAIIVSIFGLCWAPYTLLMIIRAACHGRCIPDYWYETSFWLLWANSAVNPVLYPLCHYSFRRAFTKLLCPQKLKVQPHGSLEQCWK
T1 sequence (Q9Y5N1 whole entry): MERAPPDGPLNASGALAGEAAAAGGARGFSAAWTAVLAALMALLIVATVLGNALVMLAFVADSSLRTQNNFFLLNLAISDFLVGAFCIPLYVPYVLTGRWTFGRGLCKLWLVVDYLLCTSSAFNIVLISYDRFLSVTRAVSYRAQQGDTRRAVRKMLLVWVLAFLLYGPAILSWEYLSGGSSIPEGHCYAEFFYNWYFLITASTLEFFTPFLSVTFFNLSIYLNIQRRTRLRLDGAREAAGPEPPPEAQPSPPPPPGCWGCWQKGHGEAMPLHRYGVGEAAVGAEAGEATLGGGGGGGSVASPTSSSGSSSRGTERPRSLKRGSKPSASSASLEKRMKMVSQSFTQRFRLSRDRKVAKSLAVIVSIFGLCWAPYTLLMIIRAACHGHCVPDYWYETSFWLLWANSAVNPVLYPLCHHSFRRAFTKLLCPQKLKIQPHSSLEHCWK

The compound `CCS(=O)(=O)c1ccc(-c2ccc3c(c2)COC2(CCN(C4CCC4)CC2)O3)cc1Cl` [Example 625] returned a melting point of 157 to 159 °C. In addition, in data set [1], the Ki was less than 200 nM. In addition, the Ki in data set [2] is less than 200 nM.
The compound `CCOCC1CCN(c2ccc3c(c2)CCC2(CCN(C4CCC4)CC2)O3)CC1` [Example 626] came in with a melting point of 101.6 to 103.2 °C. Moreover, the Ki in data set [1] was less than 200 nM. For the same compound, the Ki in data set [2] was less than 200 nM.
In turn, `CCOCC1CCN(c2ccc3c(c2)COC2(CCN(C4CCC4)CC2)O3)CC1` [Example 627] gave a melting point of 85.2 to 86.5 °C. Moreover, the Ki in data set [1] was less than 200 nM. Moreover, the Ki in data set [2] is less than 200 nM.
In turn, `Cc1noc(C2CCN(c3ccc4c(c3)COC3(CCN(C5CCC5)CC3)O4)CC2)n1` [Example 628] returned a melting point of 125 to 126.2 °C. Also, the Ki in data set [1] was less than 200 nM. In data set [2], the Ki was less than 200 nM.
`COc1ncc(-c2ccc3c(c2)COC2(CCN(C4CCC4)CC2)O3)cc1Cl` [Example 629]: the melting point is 174 to 175 °C. For the same compound, in data set [1], the Ki was less than 200 nM. Also, the Ki in data set [2] was less than 200 nM.
In turn, `COC(=O)CCc1ccc2c(c1)COC1(CCN(C3CCC3)CC1)O2` [Example 630] registered a melting point of 66 to 68 °C. Besides, in data set [1], the Ki was less than 200 nM. In addition, the Ki in data set [2] was less than 200 nM.
For `O=C(NC1CCOCC1)c1ccc(-c2ccc3c(c2)COC2(CCN(C4CCC4)CC2)O3)s1` [Example 631], the melting point fell in the range of 209 to 211 °C. The Ki in data set [1] was less than 200 nM. In data set [2], the Ki is less than 200 nM.
`COCC1CCN(c2ccc3c(c2)COC2(CCN(C4CCC4)CC2)O3)CC1` [Example 632] registered a melting point of 92.3 to 94.2 °C. Also, in data set [1], the Ki was less than 200 nM. Further, the Ki in data set [2] was less than 200 nM.
Consider `CNC(=O)c1ccc(-c2ccc3c(c2)COC2(CCN(C4CCC4)CC2)O3)cc1OC` [Example 633], for which the melting point was 175 to 177 °C. Besides, in data set [1], the Ki was less than 200 nM. Also, the Ki in data set [2] is less than 200 nM.
For `COCCNC(=O)c1ccc(-c2ccc3c(c2)COC2(CCN(C4CCC4)CC2)O3)cc1OC` [Example 634], the melting point was 50 to 52 °C. In data set [1], the Ki was less than 200 nM. For the same compound, the Ki in data set [2] was less than 200 nM.
`COc1cc(-c2ccc3c(c2)COC2(CCN(C4CCC4)CC2)O3)ccc1C(=O)NC1CCOCC1` [Example 635] displayed a melting point of 86 to 88 °C. In addition, the Ki in data set [1] was less than 200 nM. For the same compound, in data set [2], the inhibition constant Ki is less than 200 nM.
For the compound `COc1cc(-c2ccc3c(c2)COC2(CCN(C4CCC4)CC2)O3)ccc1C(=O)N1CCOCC1` [Example 636], the melting point lay within 94 to 96 °C. The Ki in data set [1] was less than 200 nM. The Ki in data set [2] is less than 200 nM.
Consider `CN(C)C(=O)c1ccc(-c2ccc3c(c2)COC2(CCN(C4CCC4)CC2)O3)nc1` [Example 638], for which the melting point lay in the range of 190 to 193 °C. The Ki in data set [1] is less than 200 nM. Further, the inhibition constant Ki in data set [2] is less than 200 nM.
`O=C(NC1CCOCC1)c1ccc(-c2ccc3c(c2)COC2(CCN(C4CCC4)CC2)O3)cn1` [Example 639] returned a melting point of 108 to 110 °C. In addition, the Ki in data set [1] was less than 200 nM. In addition, in data set [2], the inhibition constant Ki is less than 200 nM.
In turn, `O=C(NC1CCOCC1)c1ccc(-c2ccc3c(c2)COC2(CCN(C4CCC4)CC2)O3)cc1F` [Example 640] gave a melting point of 165 to 167 °C. In data set [1], the Ki was less than 200 nM. Moreover, the inhibitory constant (Ki) in data set [2] was less than 200 nM.
In turn, `OCc1ccc(-c2ccc3c(c2)COC2(CCN(C4CCC4)CC2)O3)s1` [Example 641] had a melting point of 168 to 169 °C. Besides, in data set [1], the Ki is less than 200 nM. For the same compound, the Ki in data set [2] was less than 200 nM.
As for `O=C(c1ccc(-c2ccc3c(c2)COC2(CCN(C4CCC4)CC2)O3)cc1F)N1CCOCC1` [Example 642], the melting point was in the range of 161 to 162 °C. The Ki in data set [1] was less than 200 nM. Besides, the Ki in data set [2] was less than 200 nM.
The compound `O=C(c1ccc(-c2ccc3c(c2)COC2(CCN(C4CCC4)CC2)O3)s1)N1CCOCC1` [Example 643] registered a melting point of 166 to 167 °C. Besides, the Ki in data set [1] was less than 200 nM. Moreover, the Ki in data set [2] was less than 200 nM.
Regarding `COCCNC(=O)CCc1ccc2c(c1)COC1(CCN(C3CCC3)CC1)O2` [Example 644], the melting point fell in the range of 68 to 70 °C. For the same compound, the Ki in data set [1] was less than 200 nM. The inhibition constant Ki in data set [2] is 200 to 1000 nM.
The compound `O=C(CCc1ccc2c(c1)COC1(CCN(C3CCC3)CC1)O2)NC1CCOCC1` [Example 645] yielded a melting point of 167 to 169 °C. In addition, the Ki in data set [1] was less than 200 nM. Also, in data set [2], the Ki was in the range of 200 to 1000 nM.
Turning to `O=C(NC1CCOCC1)c1cccc(COc2ccc3c(c2)CCC2(CCN(C4CCC4)CC2)O3)c1` [Example 646], the melting point lay in the range of 158 to 160 °C. The Ki in data set [1] was less than 200 nM. The Ki in data set [2] was less than 200 nM.
In turn, `O=C(NC1CCOCC1)c1ccc(COc2ccc3c(c2)CCC2(CCN(C4CCC4)CC2)O3)cc1` [Example 647] showed a melting point of 174 to 176 °C. Besides, in data set [1], the Ki is less than 200 nM. Also, in data set [2], the Ki is less than 200 nM.
Turning to `CCS(=O)(=O)C1CCN(c2ccc3c(c2)COC2(CCN(C4CCC4)CC2)O3)CC1` [Example 648], the melting point was in the range of 147.7 to 149.8 °C. For the same compound, the Ki in data set [1] was less than 200 nM. The Ki in data set [2] is less than 200 nM.
Compound `COc1ccc(-c2ccc3c(c2)COC2(CCN(C4CCC4)CC2)O3)nc1` [Example 650] had a melting point of 123 to 126 °C. The Ki in data set [1] was less than 200 nM. Besides, the Ki in data set [2] was less than 200 nM.
In turn, `Cc1cc(=O)[nH]cc1-c1ccc2c(c1)COC1(CCN(C3CCC3)CC1)O2` [Example 651] had a melting point of 217 to 220 °C. Also, the Ki in data set [1] is less than 200 nM. Further, in data set [2], the Ki is less than 200 nM.
Regarding `CS(=O)(=O)c1ccc(-c2ccc3c(c2)COC2(CCN(C4CCC4)CC2)O3)s1` [Example 652], the melting point fell in the range of 159 to 161 °C. Besides, in data set [1], the inhibition constant Ki was less than 200 nM. For the same compound, the Ki in data set [2] was less than 200 nM.
The compound `CNC(=O)CCc1ccc2c(c1)COC1(CCN(C3CCC3)CC1)O2` [Example 653] registered a melting point of 86 to 88 °C. The Ki in data set [1] was less than 200 nM. Further, the Ki in data set [2] was less than 200 nM.
`CN(C)S(=O)(=O)c1ccc(-c2ccc3c(c2)COC2(CCN(C4CCC4)CC2)O3)s1` [Example 654] registered a melting point of 189 to 192 °C. In data set [1], the inhibition constant (Ki) is less than 200 nM. Moreover, in data set [2], the inhibitory constant (Ki) was less than 200 nM.
`CS(=O)(=O)c1cncc(-c2ccc3c(c2)COC2(CCN(C4CCC4)CC2)O3)c1` [Example 655] gave a melting point of 148 to 149 °C. In addition, the Ki in data set [1] is less than 200 nM. For the same compound, in data set [2], the Ki was less than 200 nM.
In turn, `CC(C)S(=O)(=O)C1CCN(c2ccc3c(c2)COC2(CCN(C4CCC4)CC2)O3)CC1` [Example 656] showed a melting point of 142.6 to 145.1 °C. For the same compound, the Ki in data set [1] is less than 200 nM. Further, the Ki in data set [2] was less than 200 nM.
`Cc1nnc(C2CCN(c3ccc4c(c3)COC3(CCN(C5CCC5)CC3)O4)CC2)o1` [Example 657] gave a melting point of 75.5 to 77.8 °C. Further, the Ki in data set [1] was less than 200 nM. The Ki in data set [2] is less than 200 nM.
For `O=c1[nH]cc(-c2ccc3c(c2)COC2(CCN(C4CCC4)CC2)O3)cc1Cl` [Example 658], the melting point lay within 221.5 to 223.7 °C. Also, the Ki in data set [1] is less than 200 nM. In addition, the Ki in data set [2] is less than 200 nM.
